Like-named read-outs stand apart in the source and are kept apart here.
Assays:
Format in all cases: biochemical
[1] = molecular target: T1, human recombinant caspase 3 (Homo sapiens, UniProt P42574); test: Assay of inhibitory activity against human recombinant caspase 3 (fluorogenic substrate Ac-DEVD-MCA); details: for specificity of the enzyme inhibitory activity (in words): caspase 3 versus cathepsins and trypsin
T1 construct: purchased CALBIOCHEM 235417
T1 sequence (P42574 29-175 limits assumed): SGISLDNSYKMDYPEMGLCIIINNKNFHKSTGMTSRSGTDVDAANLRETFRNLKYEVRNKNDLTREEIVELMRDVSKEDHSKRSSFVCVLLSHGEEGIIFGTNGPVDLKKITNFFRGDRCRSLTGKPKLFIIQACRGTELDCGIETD
T1 sequence (P42574 176-277 limits assumed): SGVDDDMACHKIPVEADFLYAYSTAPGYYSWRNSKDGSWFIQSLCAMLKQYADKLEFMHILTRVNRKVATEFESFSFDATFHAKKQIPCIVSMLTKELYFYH
Experimental: A reaction buffer containing 10% sucrose, 0.1% CHAPS, 2 mM dithiothreitol in 25 mM HEPES (pH 7.5) is prepared. […] Thereto is added 25 μl of human recombinant caspase 3 (CALBIOCHEM catalog No. 235417), 500 U/ml, to start the reaction. After incubation at room temperature for 2 hr. the reaction quench buffer (0.1 M monochloroacetic acids 0.03 M sodium acetate, 0.15 M acetic acid (pH 4.3)) is added by 100 μl per well. The fluorescence of 7-amino-4-methylcoumarin ([…]) released by the enzyme reaction is measured using a fluorophotometer (Ex. 355 nm, Em. 460 nm).
The compounds of the above-mentioned 1. were examined for the activity inhibitory action on human recombinant caspase 3.

[2] = molecular target: cathepsin B (Homo sapiens, UniProt P07858); test: Enzyme specificity assay, cathepsin B (substrate Z-Arg-Arg-MNA); details: FIG. 2; phosphate buffer pH 5.5
Experimental: (§1) The above-mentioned compound was assayed for the inhibitory activity using […], cathepsin L and trypsin as enzymes other than caspase 3 and by an assay method similar to the above-mentioned Example 1 using phosphate buffer, pH 5.5 (100 mM NaCl, 5-mM DTT, 4 mM EDTA) as a buffer, Z-Arg-Arg-MNA as a substrate for […], Z-Phe-Arg-MNA as a substrate for cathepsin L, and Boc-Phe-Ser-Arg-MCA as a substrate for trypsin.

[3] = molecular target: T2, trypsin (Bos taurus, UniProt P00760); test: Enzyme specificity assay, trypsin (substrate Boc-Phe-Ser-Arg-MCA); details: FIG. 2; phosphate buffer pH 5.5
T2 construct: gene PRSS1
T2 sequence (P00760 24-246): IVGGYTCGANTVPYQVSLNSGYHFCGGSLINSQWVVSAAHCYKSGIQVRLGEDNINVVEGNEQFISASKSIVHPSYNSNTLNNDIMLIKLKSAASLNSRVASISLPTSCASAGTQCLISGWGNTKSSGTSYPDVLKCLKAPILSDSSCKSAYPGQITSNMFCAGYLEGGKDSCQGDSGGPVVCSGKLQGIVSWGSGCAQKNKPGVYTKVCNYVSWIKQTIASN
Experimental: as §1

[4] = molecular target: cathepsin L (Homo sapiens, UniProt P07711); test: Enzyme specificity assay, cathepsin L (substrate Z-Phe-Arg-MNA); details: FIG. 2; phosphate buffer pH 5.5
Experimental: as §1

[5] = FIG. 1 upper panel, read-out: IC50, inhibitory activity against human recombinant caspase 3
[6] = FIG. 1 lower panel, read-out: IC50, inhibitory activity against human recombinant caspase 3

cathepsin L, sequence (P07711 114-333, species assumed): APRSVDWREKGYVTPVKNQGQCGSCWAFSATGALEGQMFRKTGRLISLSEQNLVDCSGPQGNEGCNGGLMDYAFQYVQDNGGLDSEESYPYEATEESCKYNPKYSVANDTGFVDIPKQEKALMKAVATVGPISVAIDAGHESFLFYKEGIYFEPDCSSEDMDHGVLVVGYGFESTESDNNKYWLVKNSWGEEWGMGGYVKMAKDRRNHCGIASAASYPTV

Compound	IC50 [1, 5]	IC50 [1, 6]	specificity of the enzyme inhibitory activity (in words) ([1]; FIG. 2)	IC50 [2]	IC50 [3]	IC50 [4]	caspase 3 inhibitory activity (in words) ([1]; FIG. 1, compared with DEVD, standard product)	IC50 ([1]; FIG. 2, read-out: IC50, caspase (Enzyme Specificity))	Inhibitory mode against human recombinant caspase 3 (Lineweaver-Burk plot) ([1]; FIG. 3, different substrate concentrations (2, 4, 6 and 8 nM))
CC(=O)N[C@@H](CC(=O)O)C(=O)N[C@@H](CCC(=O)O)C(=O)N[C@H](C(=O)N[C@H](C=O)CC(=O)O)C(C)C [DEVD, acetyl-L-aspartyl-L-glutamyl-L-valyl-L-aspart-1-al, reference compound]	–	–	strongest inhibitory activity against caspase 3	672 nM	> 100 µM	17.4 µM	–	–	–
C=CC1=C(C)c2cc3[n-]c(cc4nc(cc5[n-]c(cc1n2)c(C)c5CCC(=O)[O-])C(CCC(=O)[O-])=C4C)c(C)c3C=C.[Co+2].[H+].[H+] [cobalt protoporphyrin]	13.1 nM	–	–	–	–	–	–	–	–
C/C1=C2/[N-]C([C@H](CC(N)=O)[C@@]2(C)CCC(=O)NCC(C)O)[C@]2(C)N=C(/C(C)=C3N=C(/C=C4N=C1[C@@H](CCC(N)=O)C\4(C)C)[C@@H](CCC(N)=O)[C@]\3(C)CC(N)=O)[C@@H](CCC(N)=O)[C@]2(C)CC(N)=O.[C-]#N.[C-]#N.[Co] (some centres unmarked) [dicyanocobinamide]	0.28 nM	0.142 nM	strongest inhibitory activity against caspase 3	102 nM	> 5 µM	0.00612 µM	far stronger than the inhibitory activity of DEVD	0.28 nM	competitively inhibits the substrate for caspase 3

Now from value to compound, other results behind:

IC50 [1, 5]	IC50 [1, 6]	Compound	specificity of the enzyme inhibitory activity (in words) ([1]; FIG. 2)	IC50 [2]	IC50 [3]	IC50 [4]	caspase 3 inhibitory activity (in words) ([1]; FIG. 1, compared with DEVD, standard product)	IC50 ([1]; FIG. 2, read-out: IC50, caspase (Enzyme Specificity))	Inhibitory mode against human recombinant caspase 3 (Lineweaver-Burk plot) ([1]; FIG. 3, different substrate concentrations (2, 4, 6 and 8 nM))
2100 nM	1760 nM	cyanocobalamin [reference compound]	–	–	–	–	–	–	–
–	91.2 nM	cyanoimidazolylcobamide	–	–	–	–	–	–	–
